Assay results published in PubChem BioAssay (NCI).
“And” between values parts separate entries of the source, which are not always exact repeats. Equal values may be shown once.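 Results reflect a 48-hour exposure of cells in 96-well plates to compound at five concentrations. At the GI50, growth is halved. Definition used: TGI = concentration required for complete inhibition of growth.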

Assays:
Experiment in all cases: growth of human tumour cells (NCI), 48 h
IGROV1 ovarian = test system: IGROV1 ovarian
OVCAR-3 ovarian = test system: OVCAR-3 ovarian
M14 melanoma = test system: M14 melanoma
OVCAR-4 ovarian = test system: OVCAR-4 ovarian
UO-31 renal = test system: UO-31 renal
786-0 renal = test system: 786-0 renal
COLO 205 colon = test system: COLO 205 colon
PC-3 prostate = test system: PC-3 prostate
KM12 colon = test system: KM12 colon
LOX IMVI melanoma = test system: LOX IMVI melanoma

SMILES	TGI (IGROV1 ovarian)	TGI (OVCAR-3 ovarian)	TGI (M14 melanoma)	TGI (OVCAR-4 ovarian)	TGI (UO-31 renal)	TGI (786-0 renal)	TGI (COLO 205 colon)	TGI (PC-3 prostate)	TGI (KM12 colon)	TGI (LOX IMVI melanoma)	GI50 (IGROV1 ovarian)	GI50 (OVCAR-3 ovarian)	GI50 (M14 melanoma)	GI50 (OVCAR-4 ovarian)	GI50 (UO-31 renal)	GI50 (786-0 renal)	GI50 (COLO 205 colon)	GI50 (PC-3 prostate)	GI50 (KM12 colon)	GI50 (LOX IMVI melanoma)
Cn1c(N)c(N=Nc2ccc(S(N)(=O)=O)cc2)c(=O)n(C)c1=O	> 100 µM	> 100 µM	> 100 µM	> 100 µM	> 100 µM	> 100 µM	> 100 µM	> 100 µM	> 100 µM	> 100 µM	–	–	–	–	–	–	–	–	–	–
CCCCCCCCCCCCOC1C(C(COC2OC(C(O)CO)C3OC(C)(C)OC23)OC(=O)Nc2ccc([N+](=O)[O-])cc2)OC2OC(C)(C)OC21 (centres undefined)	5.73 µM	3.14 µM	3.44 µM	23.5 µM	12.9 µM	3.15 µM	23.9 µM	5.63 µM	4.1 µM	3.79 µM	2.34 µM	1.65 µM	1.81 µM	7.09 µM	3.62 µM	1.7 µM	7.28 µM	2.42 µM	2 µM	2 µM
CN1CCN(Cc2ccc(NC(=O)c3cncc(C#Cc4c(N)ncc5ccc(F)cc45)c3)cc2C(F)(F)F)CC1	6.43 µM	16.5 µM	0.857 µM	3.87 µM	1.5 µM	1.81 µM	3.32 µM	3.78 µM	0.939 µM	1.05 µM	0.369 µM	4.07 µM	0.194 µM	0.825 µM	0.688 µM	0.911 µM	0.206 µM	1.23 µM	0.005 µM	0.303 µM
C=CC(=O)N1CC[C@@H](Oc2nc(Nc3ccc(N4CCC(N5CCN(C)CC5)CC4)cc3)c(C(N)=O)nc2CC)C1	> 100 µM	> 100 µM	> 100 µM	> 100 µM	> 100 µM	> 100 µM	> 100 µM	> 100 µM	> 100 µM	> 100 µM	> 100 µM	> 100 µM	> 100 µM	> 100 µM	> 100 µM	> 100 µM	> 100 µM	> 100 µM	> 100 µM	> 100 µM
CN(C)CCCn1c2c(c3ccc([N+](=O)[O-])cc3c1=O)C(=O)c1ccccc1-2	> 100 µM	70.5 µM	> 100 µM	> 100 µM	47.8 µM	21.2 µM	87.5 µM	> 100 µM	> 100 µM	13.3 µM	4.98 µM	25.6 µM	8.54 µM	27.6 µM	4.28 µM	4.75 µM	23.9 µM	6.06 µM	28.4 µM	2.87 µM
CCN(CC)CCC(CNc1c2ccc(Cl)cc2nc2ccc(OC)cc12)c1ccccc1 (centres undefined)	5.11 µM	4.7 µM	3.44 µM	4.26 µM	3.27 µM	3.11 µM	2.28 µM	6.16 µM	4.47 µM	2.39 µM	1.21 µM	1.71 µM	1.78 µM	1.64 µM	1.3 µM	1.38 µM	1.09 µM	1.96 µM	0.996 µM	1 µM
Cn1c([N+](=O)[O-])cnc1/C=C1\Oc2ccc(Cl)cc2C1=O	8.29 µM	0.952 µM	4.26 µM	5.71 µM	2.97 µM	3.39 µM	3.15 µM	7.1 µM	1.47 µM	0.825 µM	1.22 µM	0.307 µM	0.636 µM	1.7 µM	0.394 µM	0.942 µM	0.8 µM	1.12 µM	0.36 µM	0.25 µM
CN(C)c1ccc(/C=C/C(=O)c2ccc(Nc3nc(Nc4ccc(F)cc4)nc(Nc4ccc(Cl)cc4)n3)cc2)cc1	22.1 µM	21.6 µM	19.1 µM	> 100 µM	21.4 µM	14.1 µM	18.7 µM	5.45 µM	23.2 µM	47.2 µM	3.02 µM	5.48 µM	4.29 µM	10.7 µM	3.22 µM	2.71 µM	4.26 µM	2.08 µM	5.75 µM	8.93 µM
COc1ccc(-c2nccn2-c2cc(OC)c(OC)c(OC)c2)cc1	> 100 µM	–	> 100 µM	> 100 µM	> 93 µM	> 100 µM	7.29 µM	> 100 µM	> 100 µM	> 100 µM	1.79 µM	1.07 µM	6 µM	15.3 µM	9.38 µM	13.6 µM	0.598 µM	1.81 µM	0.451 µM	8.76 µM
O=C(/C=C\c1ccc(Cl)c(Cl)c1)c1ccccc1	21 µM	18.9 µM	21.5 µM	21.3 µM	16.7 µM	21.6 µM	29.7 µM	20.7 µM	8.88 µM	4.48 µM	6.82 µM	6.34 µM	7.37 µM	8.83 µM	4.09 µM	8.07 µM	13.6 µM	5.93 µM	3.07 µM	2.07 µM
CCOC(=O)C(Cc1ccc(N(CCCl)CCCl)cc1)NC(=O)C(CC(C)C)NC(C)=O (centres undefined)	4.72 µM	1.4 µM	2.19 µM	3.97 µM	2.91 µM	4.38 µM	2.7 µM	5.4 µM	18.8 µM	2.23 µM	1.52 µM	0.332 µM	0.568 µM	1.33 µM	0.512 µM	1.38 µM	1.25 µM	1.3 µM	4.35 µM	0.296 µM
C=C1C(=O)O[C@H]2[C@H]1CC/C(Cn1cc(CNC(=O)c3cc4ccccc4[nH]3)nn1)=C\CC[C@@]1(C)O[C@@H]21	10.6 µM	5.63 µM	6.27 µM	17.1 µM	22.1 µM	9.61 µM	4.48 µM	4.79 µM	26.7 µM	4.06 µM	3.24 µM	2.12 µM	2.09 µM	4.52 µM	10.4 µM	2.96 µM	2.13 µM	1.88 µM	11.4 µM	1.82 µM
CC(CCC/C=C/CCCN(C)C(=N)N)CC(C)C1OC(=O)C(C)C(O)/C=C/C(C)C(O)C(C)C(O)C(C)C(O)CCCC(O)CC2(O)OC(CC(OC(=O)CC(=O)O)CC(O)CC(O)C(C)C(O)/C=C/C=C/C1C)CC(O)C2O (centres undefined)	5.01 µM and 12.4 µg/mL	3.42 µM and 15.1 µg/mL	6.32 µM and 23.9 µg/mL	6.66 µM and 18.4 µg/mL	8.6 µM and 26.1 µg/mL	7.6 µM and 17.5 µg/mL	3.33 µM and 10.6 µg/mL	11.5 µM and 16 µg/mL	3.37 µM and 9.79 µg/mL	11.3 µM and 29 µg/mL	2.51 µM and 3.12 µg/mL	1.92 µM and 5.68 µg/mL	2.51 µM and 9.44 µg/mL	2.65 µM and 7.59 µg/mL	3.36 µM and 14.5 µg/mL	2.8 µM and 5.3 µg/mL	1.75 µM and 2.42 µg/mL	3.09 µM and 4.86 µg/mL	1.88 µM and 2.62 µg/mL	3.17 µM and 12 µg/mL
